Earlier results as cited in patent US20230295183A1, “HOT MELT EXTRUDED SOLID DISPERSIONS CONTAINING A BCL2 INHIBITOR” (Newave Pharmaceutical Inc., priority 2020, published 2023).

How the values were obtained:
[1] = test system: RS4;11 xenografts; conditions: single dose of 100 mg/kg
[2] = biological target: Mcl-1 (Homo sapiens, UniProt Q07820)
[3] = test system: CLL; conditions: read-out: average EC50, apoptosis in CLL
[4] = test system: RS4;11 cells
[5] = test system: SCLC H146 cell line; conditions: read-out: IC50 against SCLC H146 cell line
[6] = test system: xenograft models of small-cell lung cancer and acute lymphoblastic leukemia; conditions: oral administration, alone
[7] = biological target: T1, Bcl-w (Homo sapiens, UniProt Q92843)
T1 sequence (Q92843 1-193): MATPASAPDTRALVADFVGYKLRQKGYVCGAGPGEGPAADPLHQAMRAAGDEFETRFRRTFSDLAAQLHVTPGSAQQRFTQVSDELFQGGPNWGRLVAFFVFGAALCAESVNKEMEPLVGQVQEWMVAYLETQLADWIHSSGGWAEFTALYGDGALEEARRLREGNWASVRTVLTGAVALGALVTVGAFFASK

[8] = test system: H345 xenograft; conditions: 100 mg/kg/day, H345 xenograft model
[9] = in vivo
[10] = test system: circulating platelets; conditions: clinical trial; dose-limiting thrombocytopenia
[11] = test system: established tumors; conditions: mouse, in vivo

Chain of Mcl-1 (Q07820 whole entry): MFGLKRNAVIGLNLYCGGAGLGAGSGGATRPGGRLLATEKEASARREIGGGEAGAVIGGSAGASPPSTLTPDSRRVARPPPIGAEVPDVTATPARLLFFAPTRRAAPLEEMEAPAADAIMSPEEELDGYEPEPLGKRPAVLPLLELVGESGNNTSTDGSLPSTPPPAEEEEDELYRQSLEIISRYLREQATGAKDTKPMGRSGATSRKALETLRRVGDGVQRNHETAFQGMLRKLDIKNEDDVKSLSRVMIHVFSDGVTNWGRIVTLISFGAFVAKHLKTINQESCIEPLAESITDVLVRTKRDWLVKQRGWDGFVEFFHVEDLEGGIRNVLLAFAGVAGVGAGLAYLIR

Row | SMILES | maximal tumor growth inhibition [1] [%] | tumor growth delay [1] [%] | activity to Mcl-1 [2] | EC50 [3] [nM] | EC50 [4] [nM] | IC50 [5] [nM] | antitumor effect in xenograft models [6] | Ki [7] [nM] | TGI [8] [%] | treated tumors indicating at least a 50% reduction in tumor volume [8] [%] | oral bioavailability [9] | effect on number of circulating platelets [10] | aqueous solubility | antitumor effect in animal models [11]
1 | CC1(C)CCC(CN2CCN(c3ccc(C(=O)NS(=O)(=O)c4ccc(NCC5CCOCC5)c([N+](=O)[O-])c4)c(Oc4cnc5[nH]ccc5c4)c3)CC2)=C(c2ccc(Cl)cc2)C1 [ABT-199] | 95 | 152 | no activity | 3 | 8 | – | – | – | – | – | – | – | – | –
2 | CC1(C)CCC(c2ccc(Cl)cc2)=C(CN2CCN(c3ccc(C(=O)NS(=O)(=O)c4ccc(N[C@H](CCN5CCOCC5)CSc5ccccc5)c(S(=O)(=O)C(F)(F)F)c4)cc3)CC2)C1 [ABT-263] | – | – | – | – | – | 110 | complete tumor regressions | ≤ 1 | 80 | 20 | orally bioavailable | rapid, concentration-dependent decrease in the number of circulating platelets | – | –
3 | CN(C)CC[C@H](CSc1ccccc1)Nc1ccc(S(=O)(=O)NC(=O)c2ccc(N3CCN(Cc4ccccc4-c4ccc(Cl)cc4)CC3)cc2)cc1[N+](=O)[O-] [ABT-737] | – | – | – | – | – | – | – | – | – | – | not orally bioavailable | – | low aqueous solubility | causes regression of established tumors
